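Compound exposure: 48 hours, 5 concentrations, 96-well plates. GI50 = concentration required for 50% inhibition of growth.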 Calls of active or inactive are those of the source. Cut-off read from the data, not from the text of the source: active = GI50 up to about 1.1 µM and inactive = higher.
What was measured:
Assay in all cases: NCI anticancer screen, dose series, 48 h
CCRF-CEM = tested on: CCRF-CEM
COLO 205 = tested on: COLO 205
HOP-92 = tested on: HOP-92
K562 = tested on: K562
KM-20L2 = tested on: KM-20L2
LXFL 529 = tested on: LXFL 529
MOLT-4 = tested on: MOLT-4
Malme-3M = tested on: Malme-3M
SK-MEL-28 = tested on: SK-MEL-28
SNB-78 = tested on: SNB-78
SW-620 = tested on: SW-620
DMS-273 = tested on: DMS-273
HCT-15 = tested on: HCT-15
NCI-H460 = tested on: NCI-H460
XF498 = tested on: XF498
DU-145 = tested on: DU-145
MDA-MB-231 = tested on: MDA-MB-231
MDA-MB-435 = tested on: MDA-MB-435
MDA-N = tested on: MDA-N
PC-3 = tested on: PC-3

Measured: GI50

COc1ccc(-c2cc(O)c3cc(OC)ccc3n2)cc1
inactive: CCRF-CEM > 100 µM | COLO 205 > 100 µM | HOP-92 > 100 µM | K562 > 100 µM | KM-20L2 > 100 µM | LXFL 529 > 100 µM | MOLT-4 > 100 µM | Malme-3M > 100 µM | SK-MEL-28 > 100 µM | SNB-78 > 100 µM | SW-620 > 100 µM

O=C1c2ccccc2C(=O)c2[nH]cnc21
48.5 µM: HCT-15
inactive: CCRF-CEM 49.9 µM | DMS-273 46.8 µM | K562 78.7 µM | MOLT-4 49.5 µM | Malme-3M 20 µM | NCI-H460 32.1 µM | SK-MEL-28 > 100 µM | SNB-78 41.3 µM | XF498 32.7 µM

COC(=O)C(=O)C(C(=O)C(=O)Nc1ccc([N+](=O)[O-])cc1C#N)c1nc2ccc([N+](=O)[O-])cc2nc1O (stereo unspecified)
> 100 µM: HCT-15
inactive: CCRF-CEM > 100 µM | COLO 205 > 100 µM | DMS-273 > 100 µM | HOP-92 93.1 µM | K562 > 100 µM | KM-20L2 > 100 µM | LXFL 529 > 100 µM | MOLT-4 > 100 µM | Malme-3M > 100 µM | NCI-H460 > 100 µM | SNB-78 > 100 µM | SW-620 > 100 µM

CC12C/C(=C\c3ccccc3)C(=O)C3C1CCCC32
> 100 µM: HCT-15
inactive: CCRF-CEM 33.3 µM | COLO 205 87.1 µM | DMS-273 42.6 µM | HOP-92 > 100 µM | K562 38.6 µM | KM-20L2 63.1 µM | LXFL 529 56.9 µM | MOLT-4 21.5 µM | Malme-3M > 100 µM | NCI-H460 > 100 µM | SK-MEL-28 > 100 µM | SW-620 > 100 µM | XF498 > 100 µM

C1OCN2c3nonc3N3COCN4c5nonc5N1C2C43 (stereo unspecified)
65.9 µM: HCT-15
inactive: CCRF-CEM 77.8 µM | COLO 205 40.3 µM | DU-145 > 100 µM | HOP-92 > 100 µM | K562 78 µM | MDA-MB-231 > 100 µM | MDA-MB-435 > 100 µM | MDA-N 62.8 µM | MOLT-4 50.1 µM | Malme-3M > 100 µM | NCI-H460 > 100 µM | PC-3 > 100 µM | SK-MEL-28 > 100 µM | SW-620 > 100 µM

CCOC(=O)c1ccc(/N=N/c2cc(C(=O)OCC)ccc2O)cc1
> 100 µM: HCT-15
inactive: CCRF-CEM > 100 µM | COLO 205 > 100 µM | DMS-273 > 100 µM | HOP-92 > 100 µM | K562 > 100 µM | KM-20L2 > 100 µM | LXFL 529 > 100 µM | MOLT-4 80.7 µM | NCI-H460 > 100 µM | SK-MEL-28 > 100 µM | SW-620 > 100 µM | XF498 2.13 µM

CC1(C)C2C/C(=C\c3ccccc3)C(=O)C1C2 (stereo unspecified)
inactive: CCRF-CEM > 100 µM | COLO 205 > 100 µM | DMS-273 > 100 µM | HOP-92 > 100 µM | K562 > 100 µM | LXFL 529 > 100 µM | MOLT-4 56.9 µM | Malme-3M > 100 µM | NCI-H460 > 100 µM | SK-MEL-28 87.5 µM | SNB-78 > 100 µM | SW-620 > 100 µM
> 100 µM: HCT-15

CC(=O)OC1c2ccccc2CCCCCCC12OCCO2 (stereo unspecified)
inactive: CCRF-CEM > 100 µM | COLO 205 > 100 µM | K562 55.2 µM | KM-20L2 > 100 µM | MOLT-4 60.3 µM | Malme-3M 92.5 µM | NCI-H460 > 100 µM | SK-MEL-28 > 100 µM | SNB-78 > 100 µM | SW-620 > 100 µM
68.1 µM: HCT-15

O=c1c2cc(Br)cc(Br)c2nc(CCCl)n1CCO
inactive: CCRF-CEM 41 µM | COLO 205 > 100 µM | HOP-92 28.8 µM | K562 52.5 µM | KM-20L2 > 100 µM | LXFL 529 77.6 µM | MOLT-4 46.9 µM | Malme-3M 52.1 µM | NCI-H460 > 100 µM | SK-MEL-28 52 µM | SNB-78 > 100 µM | SW-620 > 100 µM | XF498 41.7 µM

COc1ccc(/N=C(/[N-]n2c(=O)c(C)nn(C)c2=S)N(c2ccc(OC)cc2)c2n[n+]3c(=O)c(C)nn(C)c3s2)cc1
inactive: CCRF-CEM > 100 µM | COLO 205 > 100 µM | DMS-273 > 100 µM | HOP-92 > 100 µM | K562 > 100 µM | KM-20L2 > 100 µM | LXFL 529 > 100 µM | MOLT-4 > 100 µM | NCI-H460 > 100 µM | SK-MEL-28 > 100 µM | SNB-78 > 100 µM | SW-620 > 100 µM
> 100 µM: HCT-15

— ChEMBL document CHEMBL1201862, “PubChem BioAssay data set” (2004)
